The experiment deals with T1, FAAH (Rattus norvegicus, UniProt P97612).
T1 construct: Preparation of Rat Brain Membranes Preparations (FAAH Enzyme Solution); from tissue; host or cells: rat cerebrum (brain membrane preparation)
T1 sequence (P97612 1-579): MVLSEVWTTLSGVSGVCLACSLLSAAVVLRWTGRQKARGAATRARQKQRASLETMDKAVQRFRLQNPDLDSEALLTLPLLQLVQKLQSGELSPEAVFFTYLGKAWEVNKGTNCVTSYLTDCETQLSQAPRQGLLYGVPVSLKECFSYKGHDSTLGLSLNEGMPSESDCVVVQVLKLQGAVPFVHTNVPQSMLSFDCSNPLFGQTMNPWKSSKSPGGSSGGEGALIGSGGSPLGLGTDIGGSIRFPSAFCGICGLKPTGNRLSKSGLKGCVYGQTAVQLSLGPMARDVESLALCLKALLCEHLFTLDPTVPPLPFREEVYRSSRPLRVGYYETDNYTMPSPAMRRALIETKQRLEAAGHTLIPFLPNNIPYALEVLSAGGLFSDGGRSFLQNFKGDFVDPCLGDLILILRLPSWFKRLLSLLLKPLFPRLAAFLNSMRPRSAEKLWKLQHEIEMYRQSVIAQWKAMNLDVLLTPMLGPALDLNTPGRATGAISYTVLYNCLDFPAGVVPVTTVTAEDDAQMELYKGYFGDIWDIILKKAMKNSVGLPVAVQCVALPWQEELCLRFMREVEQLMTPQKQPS
Description: Determination of FAAH inhibitory activity in rat (rat brain membrane preparations, [3H]-anandamide hydrolysis). To be noted: for inhibition at 0.1 µM: read-out: FAAH Inhibition, Inhibition Rate at 100 nM; for pIC50: test substance 0.1 nM to 1 μM. Type of experiment: biochemical. The gist of the method: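 Compounds tested from 0.1 nM to 1 μM to derive IC50 against FAAH hydrolysis in rat brain membrane preparations (100 μg/mL). A 10-min 37 °C preincubation was followed by 10 min with [3H]-anandamide (2 nM) mixed with 2 μM unlabelled anandamide. Radioactive ethanolamine was extracted into the water/methanol layer and counted.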

The mark [1] stands for this setting: rat brain membrane preparations, 100 nM test substance.
Where [2] appears, read: rat brain membrane preparations, read-out: FAAH Inhibition IC50.

Each structure is given as a SMILES string. pIC50: −log10 of the molar value. Like-named read-outs stand apart in the source and are kept apart here.

What is called inhibition is the relative decrease from the control value, in per cent. In general, pIC50 refers to the IC50 on a negative log10 scale, so that one unit is a factor of ten.

For `CCCCOc1ccc(-c2ncc3c(n2)n(C(=O)N2CCC2)c(=O)n3C)cc1` [compound 349], the inhibition at 0.1 µM under setting [1] was found to be 103%. Besides, under setting [2], the pIC50 was 8.00.

As to `Cn1c(=O)n(C(=O)N2CCC2)c2nc(-c3cccc(OC(F)(F)F)c3)ncc21` [compound 350], under setting [1], the inhibition at 0.1 µM is 94%. For the same compound, the pIC50 under setting [2] was 8.00.

Consider `Cn1c(=O)n(C(=O)N2CCC2)c2nc(-c3ccc(OC(F)(F)F)cc3)ncc21` [compound 351], for which, under setting [1], the inhibition at 0.1 µM stood at 104%. Further, the pIC50 under setting [2] was 8.00.

Take `Cn1c(=O)n(C(=O)N2CCC2)c2nc(-c3ccccc3)ncc21` [compound 352]: the inhibition at 0.1 µM under setting [1] amounted to 42%. The pIC50 under setting [2] is 6.79.

Take `Cn1c(=O)n(C(=O)N2CCC2)c2nc(-c3cccc(F)c3)ncc21` [compound 353]: the inhibition at 0.1 µM under setting [1] is 72%. For the same compound, under setting [2], the pIC50 was 7.04.

Take `Cn1c(=O)n(C(=O)N2CCC2)c2nc(-c3ccc(F)cc3)ncc21` [compound 354]: the inhibition at 0.1 µM under setting [1] came to 79%. Further, the pIC50 under setting [2] is 7.28.

For the compound `COc1cccc(-c2ncc3c(n2)n(C(=O)N2CCC2)c(=O)n3C)c1` [compound 355], the inhibition at 0.1 µM under setting [1] stood at 76%. Further, the negative logarithm of the IC50 (pIC50) under setting [2] is 7.07.

In the case of `Cn1c(=O)n(C(=O)N2CCC2)c2nc(-c3cccc(C(F)(F)F)c3)ncc21` [compound 357], the inhibition at 0.1 µM under setting [1] was found to be 107%. For the same compound, the pIC50 under setting [2] is 7.96.

As to `Cn1c(=O)n(C(=O)N2CCC2)c2nc(-c3ccc(OCC(F)F)cc3)ncc21` [compound 368], the inhibition at 0.1 µM under setting [1] came to 99%. Moreover, the pIC50 under setting [2] is 7.77.

For `Cc1cccc(Cc2ncc3c(n2)n(C)c(=O)n3C(=O)N2CCC2)c1` [compound 371], the inhibition at 0.1 µM under setting [1] was 43%. In addition, the negative logarithm of the IC50 (pIC50) under setting [2] is 6.83.

`Cn1c(=O)n(C(=O)N2CCC2)c2cnc(Cc3cccc(F)c3)nc21` [compound 372]: the inhibition at 0.1 µM under setting [1] was found to be 80%. The pIC50 under setting [2] is 7.49.

Regarding `Cn1c(=O)n(C(=O)N2CCC2)c2cnc(Cc3ccc(F)cc3)nc21` [compound 373], the inhibition at 0.1 µM under setting [1] was 90%. Moreover, under setting [2], the negative-log IC50 (pIC50) is 7.77.

As to `Cn1c(=O)n(C(=O)N2CCC2)c2cnc(Cc3ccccc3F)nc21` [compound 374], the inhibition at 0.1 µM under setting [1] worked out at 85%. For the same compound, the negative logarithm of the IC50 (pIC50) under setting [2] is 7.92.

For the compound `COc1ccc(Cc2ncc3c(n2)n(C)c(=O)n3C(=O)N2CCC2)cc1` [compound 376], under setting [1], the inhibition at 0.1 µM came to 89%. For the same compound, the pIC50 under setting [2] is 7.62.

Regarding `Cn1c(=O)n(C(=O)N2CCC2)c2cnc(Cc3ccccc3Cl)nc21` [compound 377], the inhibition at 0.1 µM under setting [1] worked out at 82%. The pIC50 under setting [2] was 7.41.

For `Cn1c(=O)n(C(=O)N2CCC2)c2cnc(Cc3ccc(Cl)cc3)nc21` [compound 378], under setting [1], the inhibition at 0.1 µM is 80%. Besides, the pIC50 under setting [2] was 7.51.

As to `COCCc1ncc2c(n1)n(C)c(=O)n2C(=O)N1CC(c2ccccc2)C1` [compound 389], under setting [1], the inhibition at 0.1 µM worked out at 105%. Also, under setting [2], the pIC50 is 8.05.

With `COCCc1ncc2c(n1)n(C)c(=O)n2C(=O)N1CC(c2ccc(F)cc2)C1` [compound 390], the inhibition at 0.1 µM under setting [1] worked out at 120%. The pIC50 under setting [2] was 9.00.

Take `COCCc1ncc2c(n1)n(C)c(=O)n2C(=O)N1CC(c2cccc(F)c2)C1` [compound 391]: the inhibition at 0.1 µM under setting [1] came to 105%. Besides, the pIC50 under setting [2] was 8.40.

With `CCOc1ccc(C2CN(C(=O)n3c(=O)n(C)c4nc(CCOC)ncc43)C2)cc1` [compound 392], the inhibition at 0.1 µM under setting [1] is 105%. For the same compound, under setting [2], the pIC50 is 7.96.

Regarding `COCCc1ncc2c(n1)n(C)c(=O)n2C(=O)N1CC(c2cccc(C(F)(F)F)c2)C1` [compound 393], under setting [1], the inhibition at 0.1 µM is 101%. The pIC50 under setting [2] was 8.00.

Turning to `Cn1c(=O)n(C(=O)N2CCC2)c2cnc(COc3ccccc3)nc21` [compound 403], the inhibition at 0.1 µM under setting [1] stood at 93%. In addition, under setting [2], the negative logarithm of the IC50 (pIC50) was 7.70.

`Cn1c(=O)n(C(=O)N2CCC2)c2cnc(COc3cccc(F)c3)nc21` [compound 405]: the inhibition at 0.1 µM is 97%. In addition, under “FAAH Inhibition IC50, rat brain membrane preparations”, the pIC50 was 7.01.

On to `Cn1c(=O)n(C(=O)N2CCC2)c2cnc(COc3ccc(Cl)cc3)nc21` [compound 406], for which, under setting [1], the inhibition at 0.1 µM came to 54%. For the same compound, the pIC50 under setting [2] was 7.00.

Consider `Cn1c(=O)n(C(=O)N2CCC2)c2cnc(COc3cccc(Cl)c3)nc21` [compound 407], for which the inhibition at 0.1 µM under setting [1] was found to be 70%. In addition, under setting [2], the pIC50 was 7.04.

For `Cn1c(=O)n(C(=O)N2CCC2)c2cnc(COc3ccccc3F)nc21` [compound 408], the inhibition at 0.1 µM under setting [1] was found to be 69%. For the same compound, under setting [2], the negative-log IC50 (pIC50) is 7.00.

With `Cn1c(=O)n(C(=O)N2CCC2)c2cnc(COc3ccccc3Cl)nc21` [compound 409], under setting [1], the inhibition at 0.1 µM turned out to be 63%. For the same compound, the pIC50 under setting [2] was 7.02.

As to `Cn1c(=O)n(C(=O)N2CCC2)c2cnc(COc3cccc(C(F)(F)F)c3)nc21` [compound 410], under setting [1], the inhibition at 0.1 µM was determined as 55%. Under setting [2], the pIC50 was 7.00.

Consider `Cc1cccc(OCc2ncc3c(n2)n(C)c(=O)n3C(=O)N2CCC2)c1` [compound 411], for which, under setting [1], the inhibition at 0.1 µM worked out at 45%. Also, the pIC50 under setting [2] is 6.77.

For the compound `Cn1c(=O)n(C(=O)N2CCC2)c2cnc(COc3cccc(OC(F)(F)F)c3)nc21` [compound 412], the inhibition at 0.1 µM under setting [1] worked out at 56%. Also, the negative-log IC50 (pIC50) under setting [2] is 7.11.

As to `COCc1ncc2c(n1)n(C)c(=O)n2C(=O)N1CC(c2ccccc2C)C1` [compound 442], under setting [1], the inhibition at 0.1 µM was 54%. The negative-log IC50 (pIC50) under setting [2] was 7.13.

For the compound `COCc1ncc2c(n1)n(C)c(=O)n2C(=O)N1CC(c2cccc(C)c2)C1` [compound 444], the inhibition at 0.1 µM under setting [1] worked out at 69%. In addition, the negative logarithm of the IC50 (pIC50) under setting [2] is 7.21.

With `CCOc1ccc(C2CN(C(=O)n3c(=O)n(C)c4nc(COC)ncc43)C2)cc1` [compound 445], under setting [1], the inhibition at 0.1 µM came out at 105%. In addition, under setting [2], the negative-log IC50 (pIC50) was 8.00.

Regarding `COCc1ncc2c(n1)n(C)c(=O)n2C(=O)N1CC(c2ccc(Cl)cc2)C1` [compound 446], the inhibition at 0.1 µM under setting [1] turned out to be 101%. Further, the pIC50 under setting [2] was 8.22.

`COCc1ncc2c(n1)n(C)c(=O)n2C(=O)N1CC(c2cccc(Cl)c2)C1` [compound 447]: the inhibition at 0.1 µM under setting [1] was found to be 131%. Also, under setting [2], the pIC50 is 9.00.

As for `COCc1ncc2c(n1)n(C)c(=O)n2C(=O)N1CC(c2ccc(C(F)(F)F)cc2)C1` [compound 448], the inhibition at 0.1 µM under setting [1] came out at 95%. Besides, the pIC50 under setting [2] is 8.00.

With `COCc1ncc2c(n1)n(C)c(=O)n2C(=O)N1CC(c2cccc(OC(F)(F)F)c2)C1` [compound 449], the inhibition at 0.1 µM under setting [1] was 84%. The pIC50 under setting [2] was 7.55.

As to `COCc1ncc2c(n1)n(C)c(=O)n2C(=O)N1CC(c2ccc(OC)cc2)C1` [compound 450], the inhibition at 0.1 µM under setting [1] stood at 89%. For the same compound, the pIC50 under setting [2] was 7.70.

Turning to `CCOc1cccc(C2CN(C(=O)n3c(=O)n(C)c4nc(COC)ncc43)C2)c1` [compound 451], the inhibition at 0.1 µM under setting [1] amounted to 95%. Further, the negative-log IC50 (pIC50) under setting [2] is 7.92.

In the case of `COCc1ncc2c(n1)n(C)c(=O)n2C(=O)N1CC(c2ccc(C)cc2)C1` [compound 452], the inhibition at 0.1 µM under setting [1] was 74%. Moreover, the pIC50 under setting [2] was 7.41.

Turning to `COCc1ncc2c(n1)n(C)c(=O)n2C(=O)N1CC(c2ccccc2OC)C1` [compound 457], under setting [1], the inhibition at 0.1 µM came out at 96%. Moreover, the pIC50 under setting [2] is 8.00.

Turning to `CCOCc1ncc2c(n1)n(C)c(=O)n2C(=O)N1CC(c2ccc(F)cc2)C1` [compound 461], the inhibition at 0.1 µM under setting [1] worked out at 107%. The negative logarithm of the IC50 (pIC50) under setting [2] was 8.00.

For `CCCOCc1ncc2c(n1)n(C)c(=O)n2C(=O)N1CC(c2ccccc2)C1` [compound 467], the inhibition at 0.1 µM under setting [1] turned out to be 69%. The negative logarithm of the IC50 (pIC50) under setting [2] was 7.28.

For the compound `CCCOCc1ncc2c(n1)n(C)c(=O)n2C(=O)N1CC(c2ccc(F)cc2)C1` [compound 470], the inhibition at 0.1 µM under setting [1] came to 103%. In addition, the pIC50 under setting [2] was 8.70.

Take `COCCOCc1ncc2c(n1)n(C)c(=O)n2C(=O)N1CC(c2cccc(F)c2)C1` [compound 473]: the inhibition at 0.1 µM under setting [1] came to 113%. For the same compound, under setting [2], the pIC50 is 8.10.

For `CN(C)C(=O)n1c(=O)n(C)c2cnc(CCc3cccc(OC(F)(F)F)c3)nc21` [compound 495], the inhibition at 0.1 µM under setting [1] amounted to 100%. Also, under setting [2], the negative-log IC50 (pIC50) was 8.00.

For the compound `CN(C)C(=O)n1c(=O)n(C)c2cnc(CCc3ccc(F)c(F)c3)nc21` [compound 496], under setting [1], the inhibition at 0.1 µM is 86%. Moreover, the pIC50 under setting [2] is 7.82.

With `Cc1cccc(CCc2ncc3c(n2)n(C(=O)N(C)C)c(=O)n3C)c1` [compound 498], the inhibition at 0.1 µM under setting [1] came to 93%. Also, the pIC50 under setting [2] was 7.62.

On to `CN(C)C(=O)n1c(=O)n(C)c2cnc(CCc3ccccc3F)nc21` [compound 499], for which, under setting [1], the inhibition at 0.1 µM was found to be 91%. Besides, under setting [2], the negative-log IC50 (pIC50) was 7.55.

These data come from patent publication US8735406B2, “8-oxodihydropurine derivative” (Dainippon Sumitomo Pharma Co., Ltd., priority 2009, dated 2014).
